Source: ChEMBL document CHEMBL3885881, “DrugMatrix”

Organism: Rattus norvegicus
Assay: DrugMatrix - Regimen: Daily Repeat
Format: toxicity, organism-based, Sprague-Dawley
Design: regimen Daily Repeat, gender Male, age 6-8 weeks
Conditions: in vivo, po, route oral GAVAGE, […]; for ABSOLUTE BASOPHIL / ABSOLUTE EOSINOPHIL / ABSOLUTE LYMPHOCYTE / ABSOLUTE MONOCYTE / ABSOLUTE SEGMENTED NEUTROPHIL / BASOPHIL / EOSINOPHIL / ERYTHROCYTE COUNT / HEMATOCRIT / HEMOGLOBIN / LEUKOCYTE COUNT / LYMPHOCYTE / MEAN CORPUSCULAR HEMOGLOBIN / MEAN CORPUSCULAR HEMOGLOBIN CONCENTRATION / MEAN CORPUSCULAR VOLUME / MONOCYTE / NEUTROPHIL / NUCLEATED RED BLOOD CELLS / PLATELET COUNT: tissue Blood; for ALANINE AMINOTRANSFERASE / ALBUMIN / ALKALINE PHOSPHATASE / ASPARTATE AMINOTRANSFERASE / BLOOD UREA NITROGEN / CARBON DIOXIDE / CHLORIDE / CHOLESTEROL / CREATINE PHOSPHOKINASE / CREATININE / GLUCOSE / LACTATE DEHYDROGENASE / LIPASE / PHOSPHORUS / POTASSIUM / SODIUM / TOTAL BILIRUBIN / TOTAL PROTEIN / URIC ACID: tissue Plasma
[1] = 0 mg/kg, 72 h, dose level Control, time 3 day
[2] = 0 mg/kg, 120 h, dose level Control, time 5 day
[3] = 3 mg/kg, 72 h, dose level Low, time 3 day

Structure (SMILES): CS(=O)(=O)c1ccc(C2=C(c3ccccc3)C(=O)OC2)cc1 [ROFECOXIB]
- ABSOLUTE BASOPHIL [1]: 0 CELLS/uL
- ABSOLUTE EOSINOPHIL [1]: 0 CELLS/uL
- ABSOLUTE LYMPHOCYTE [1]: 6275.67 CELLS/uL
- ABSOLUTE MONOCYTE [1]: 40.67 CELLS/uL
- ABSOLUTE SEGMENTED NEUTROPHIL [1]: 633.67 CELLS/uL
- BASOPHIL [1]: 0%
- EOSINOPHIL [1]: 0%
- ERYTHROCYTE COUNT [1]: 5.2 x10E6/uL
- HEMATOCRIT [1]: 32.78%
- HEMOGLOBIN [1]: 12.98 G/DL
- LEUKOCYTE COUNT [1]: 6.95 x10E3/uL
- LYMPHOCYTE [1]: 90.17%
- MEAN CORPUSCULAR HEMOGLOBIN [1]: 24.97 pg
- MEAN CORPUSCULAR HEMOGLOBIN CONCENTRATION [1]: 39.62 G/DL
- MEAN CORPUSCULAR VOLUME [1]: 63.03 fL
- MONOCYTE [1]: 0.67%
- NEUTROPHIL [1]: 9.17%
- NUCLEATED RED BLOOD CELLS [1]: 0 /100WBC
- PLATELET COUNT [1]: 1082.83 x10E3/uL
- ALANINE AMINOTRANSFERASE [1]: 69.67 u/L
- ALBUMIN [1]: 4.15 G/DL
- ALKALINE PHOSPHATASE [1]: 430.5 u/L
- ASPARTATE AMINOTRANSFERASE [1]: 90.83 u/L
- BLOOD UREA NITROGEN [1]: 13 mg/dL
- CARBON DIOXIDE [1]: 33 mmol/L
- CHLORIDE [1]: 99.17 MEQ/L
- CHOLESTEROL [1]: 70.5 mg/dL
- CREATINE PHOSPHOKINASE [1]: 253.33 u/L
- CREATININE [1]: 0.13 mg/dL
- GLUCOSE [1]: 157.17 mg/dL
- LACTATE DEHYDROGENASE [1]: 85 u/L
- LIPASE [1]: 10 u/L
- PHOSPHORUS [1]: 10.2 mg/dL
- POTASSIUM [1]: 5.78 MEQ/L
- SODIUM [1]: 144.12 MEQ/L
- TOTAL BILIRUBIN [1]: 0.2 mg/dL
- TOTAL PROTEIN [1]: 5.8 G/DL
- URIC ACID [1]: 0.8 mg/dL
- ABSOLUTE BASOPHIL [2]: 0 CELLS/uL
- ABSOLUTE EOSINOPHIL [2]: 0 CELLS/uL
- ABSOLUTE LYMPHOCYTE [2]: 10431 CELLS/uL
- ABSOLUTE MONOCYTE [2]: 90.5 CELLS/uL
- ABSOLUTE SEGMENTED NEUTROPHIL [2]: 1111.83 CELLS/uL
- BASOPHIL [2]: 0%
- EOSINOPHIL [2]: 0%
- ERYTHROCYTE COUNT [2]: 5.51 x10E6/uL
- HEMATOCRIT [2]: 34.67%
- HEMOGLOBIN [2]: 13.5 G/DL
- LEUKOCYTE COUNT [2]: 11.63 x10E3/uL
- LYMPHOCYTE [2]: 89.67%
- MEAN CORPUSCULAR HEMOGLOBIN [2]: 24.5 pg
- MEAN CORPUSCULAR HEMOGLOBIN CONCENTRATION [2]: 38.95 G/DL
- MEAN CORPUSCULAR VOLUME [2]: 62.87 fL
- MONOCYTE [2]: 0.67%
- NEUTROPHIL [2]: 9.67%
- NUCLEATED RED BLOOD CELLS [2]: 0 /100WBC
- PLATELET COUNT [2]: 1052.67 x10E3/uL
- ALANINE AMINOTRANSFERASE [2]: 54.67 u/L
- ALBUMIN [2]: 4.15 G/DL
- ALKALINE PHOSPHATASE [2]: 359.83 u/L
- ASPARTATE AMINOTRANSFERASE [2]: 83 u/L
- BLOOD UREA NITROGEN [2]: 13.5 mg/dL
- CARBON DIOXIDE [2]: 27.17 mmol/L
- CHLORIDE [2]: 98.5 MEQ/L
- CHOLESTEROL [2]: 66.83 mg/dL
- CREATINE PHOSPHOKINASE [2]: 256.17 u/L
- CREATININE [2]: 0.19 mg/dL
- GLUCOSE [2]: 171.33 mg/dL
- LACTATE DEHYDROGENASE [2]: 91.5 u/L
- LIPASE [2]: 10.5 u/L
- PHOSPHORUS [2]: 8.72 mg/dL
- POTASSIUM [2]: 5.34 MEQ/L
- SODIUM [2]: 142.53 MEQ/L
- TOTAL BILIRUBIN [2]: 0.2 mg/dL
- TOTAL PROTEIN [2]: 6.05 G/DL
- URIC ACID [2]: 0.6 mg/dL
- ABSOLUTE BASOPHIL [3]: 0 CELLS/uL
- ABSOLUTE EOSINOPHIL [3]: 85.33 CELLS/uL
- ABSOLUTE LYMPHOCYTE [3]: 8896 CELLS/uL
- ABSOLUTE MONOCYTE [3]: 157.33 CELLS/uL
- ABSOLUTE SEGMENTED NEUTROPHIL [3]: 594.67 CELLS/uL
- BASOPHIL [3]: 0%
- EOSINOPHIL [3]: 0.67%
- ERYTHROCYTE COUNT [3]: 4.87 x10E6/uL
- HEMATOCRIT [3]: 31.33%
- HEMOGLOBIN [3]: 12.37 G/DL
- LEUKOCYTE COUNT [3]: 9.73 x10E3/uL
- LYMPHOCYTE [3]: 92%
- MEAN CORPUSCULAR HEMOGLOBIN [3]: 25.37 pg
- MEAN CORPUSCULAR HEMOGLOBIN CONCENTRATION [3]: 39.47 G/DL
- MEAN CORPUSCULAR VOLUME [3]: 64.27 fL
- MONOCYTE [3]: 1.33%
- NEUTROPHIL [3]: 6%
- NUCLEATED RED BLOOD CELLS [3]: 0 /100WBC
- PLATELET COUNT [3]: 1073 x10E3/uL
- ALANINE AMINOTRANSFERASE [3]: 72.67 u/L
- ALBUMIN [3]: 3.97 G/DL
- ALKALINE PHOSPHATASE [3]: 379.67 u/L
- ASPARTATE AMINOTRANSFERASE [3]: 91.33 u/L
- BLOOD UREA NITROGEN [3]: 11.33 mg/dL
- CARBON DIOXIDE [3]: 30.33 mmol/L
- CHLORIDE [3]: 103.33 MEQ/L
- CHOLESTEROL [3]: 80.33 mg/dL
- CREATINE PHOSPHOKINASE [3]: 195.67 u/L
- CREATININE [3]: 0.12 mg/dL
- GLUCOSE [3]: 156 mg/dL
- LACTATE DEHYDROGENASE [3]: 80 u/L
- LIPASE [3]: 9.67 u/L
- PHOSPHORUS [3]: 11.1 mg/dL
- POTASSIUM [3]: 6.21 MEQ/L
- SODIUM [3]: 149.03 MEQ/L
- TOTAL BILIRUBIN [3]: 0.1 mg/dL
- TOTAL PROTEIN [3]: 5.43 G/DL
- URIC ACID [3]: 0.7 mg/dL
